Test results published in PubChem BioAssay AID248 (DTP/NCI, 2004).
Values joined by “and” are separate entries in the source; they are usually repeats but may differ in a detail not shown here. Identical values can stand only once. Inconclusive results and toxic doses are left out. Rule as the data show it: active = T/C of 150% or more; inactive = T/C below 125%.

Test system: L1210 leukemia ip in BDF1 mice, survival T/C
Assay: NCI In Vivo Anticancer Drug Screen. Data for tumor model L1210 Leukemia (intraperitoneal) in B6D2F1 (BDF1) mice
Settings: endpoint: mean survival time, higher = longer survival
In short: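 Tumor cells were implanted, animals were treated, and survival was followed. The result divides the treated measurement by the vehicle-control measurement.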

[1] = dose: 100.0 mg/kg/injection, schedule: Q01DX001 (ip), vehicle: saline with Tween-80
[2] = dose: 12.5 mg/kg/injection, schedule: Q01DX009 (ip), vehicle: saline with Tween-80
[3] = dose: 50.0 mg/kg/injection, schedule: Q01DX009 (ip), vehicle: saline with Tween-80
[4] = dose: 100.0 mg/kg/injection, schedule: Q04DX003 (ip), vehicle: saline with Tween-80
[5] = dose: 200.0 mg/kg/injection, schedule: Q04DX003 (ip), vehicle: saline with Tween-80
[6] = dose: 100.0 mg/kg/injection, schedule: Q01DX009 (ip), vehicle: saline with Tween-80
[7] = dose: 100.0 mg/kg/injection, schedule: Q04DX002 (ip), vehicle: saline with Tween-80
[8] = dose: 200.0 mg/kg/injection, schedule: Q01DX001 (ip), vehicle: saline with Tween-80
[9] = dose: 200.0 mg/kg/injection, schedule: Q01DX009 (ip), vehicle: saline with Tween-80
[10] = dose: 400.0 mg/kg/injection, schedule: Q01DX001 (ip), vehicle: saline with Tween-80
[11] = dose: 400.0 mg/kg/injection, schedule: Q04DX003 (ip), vehicle: saline with Tween-80

Measured: T/C

O=c1[nH]cnc2[nH]ncc12
inactive: dose: 50.0 mg/kg/injection, schedule: Q01DX001 (ip), vehicle: saline with Tween-80 95 % of control | dose: 69.0 mg/kg/injection, schedule: Q01DX015 (ip), vehicle: carboxymethylcellulose (CMC) 94 % of control | dose: 100.0 mg/kg/injection, schedule: Q01DX001 (ip), vehicle: carboxymethylcellulose (CMC) 106 % of control | [1] 105 % of control | dose: 100.0 mg/kg/injection, schedule: Q01DX001 (ip), vehicle: saline 101 % of control | dose: 104.0 mg/kg/injection, schedule: Q01DX015 (ip), vehicle: carboxymethylcellulose (CMC) 95 % of control | dose: 156.0 mg/kg/injection, schedule: Q01DX015 (ip), vehicle: carboxymethylcellulose (CMC) 96 % of control | dose: 200.0 mg/kg/injection, schedule: Q01DX001 (ip), vehicle: carboxymethylcellulose (CMC) 102 % of control | dose: 234.0 mg/kg/injection, schedule: Q01DX015 (ip), vehicle: carboxymethylcellulose (CMC) 94 % of control | dose: 351.0 mg/kg/injection, schedule: Q01DX015 (ip), vehicle: carboxymethylcellulose (CMC) 95 % of control

O=[N+]([O-])/C=C/c1ccc2ccccc2n1
inactive: dose: 6.25 mg/kg/injection, schedule: Q01DX009 (ip), vehicle: saline with Tween-80 97 % of control | [2] 97 % of control | [3] 87 % of control | [4] 93 % of control | [5] 95 % of control

CCOc1ccc(Br)cc1
inactive: [1] 91 % of control | [6] 95 % of control and 105 % of control | [7] 97 % of control and 101 % of control | [4] 105 % of control | [8] 87 % of control | [9] 105 % of control and 92 % of control | dose: 200.0 mg/kg/injection, schedule: Q04DX002 (ip), vehicle: saline with Tween-80 119 % of control and 92 % of control | [5] 94 % of control | [10] 89 % of control | dose: 400.0 mg/kg/injection, schedule: Q04DX002 (ip), vehicle: saline with Tween-80 99 % of control and 91 % of control | [11] 101 % of control

ClC1=NC(c2ccccc2)N2C(Cl)C12 (stereo unspecified)
inactive: [1] 103 % of control | [6] 104 % of control | [8] 95 % of control | [9] 98 % of control | [10] 95 % of control | dose: 400.0 mg/kg/injection, schedule: Q01DX009 (ip), vehicle: saline with Tween-80 104 % of control

CP(=O)(CCP(=O)(c1ccccc1)c1ccccc1)c1ccccc1 (stereo unspecified)
inactive: dose: 25.0 mg/kg/injection, schedule: Q04DX002 (ip), vehicle: saline with Tween-80 94 % of control | dose: 50.0 mg/kg/injection, schedule: Q04DX002 (ip), vehicle: saline with Tween-80 106 % of control | [7] 97 % of control

CCOC(=O)c1cnc(SC)nc1Nc1cccc(C)c1
inactive: [4] 86 % of control | [5] 91 % of control | [11] 86 % of control

Cc1cc(=S)cc(C)o1
inactive: dose: 100.0 mg/kg/injection, schedule: Q04DX002 (ip), vehicle: gum acacia 93 % of control | dose: 200.0 mg/kg/injection, schedule: Q04DX002 (ip), vehicle: gum acacia 109 % of control

CCCCCOC(=O)Nc1ccc(OCC)cc1
inactive: dose: 100.0 mg/kg/injection, schedule: Q04DX002 (ip), vehicle: Klucel (hydroxypropylcellulose) (HPC) 105 % of control | dose: 200.0 mg/kg/injection, schedule: Q04DX002 (ip), vehicle: Klucel (hydroxypropylcellulose) (HPC) 101 % of control | dose: 400.0 mg/kg/injection, schedule: Q04DX002 (ip), vehicle: Klucel (hydroxypropylcellulose) (HPC) 105 % of control

O=C(O)C12C3C4CC5C3C1C5C42 (stereo unspecified)
inactive: [4] 98 % of control | [5] 106 % of control | [11] 97 % of control

CC(=O)OCC1=C(C(=O)O)N2C(=O)C(NC(=O)CSc3ccncc3)C2SC1 (stereo unspecified)
inactive: dose: 100.0 mg/kg/injection, schedule: Q04DX002 (ip), vehicle: saline 103 % of control | dose: 200.0 mg/kg/injection, schedule: Q04DX002 (ip), vehicle: saline 114 % of control | dose: 400.0 mg/kg/injection, schedule: Q04DX002 (ip), vehicle: saline 107 % of control

NC(=O)c1cc(=O)n(C2OC(CO)C(O)C2O)c2ncnc(N)c12 (stereo unspecified)
inactive: dose: 12.5 mg/kg/injection, schedule: Q01DX005 (ip), vehicle: water 104 % of control | dose: 25.0 mg/kg/injection, schedule: Q01DX005 (ip), vehicle: water 90 % of control | dose: 50.0 mg/kg/injection, schedule: Q01DX005 (ip), vehicle: water 95 % of control | dose: 100.0 mg/kg/injection, schedule: Q01DX005 (ip), vehicle: water 98 % of control | dose: 200.0 mg/kg/injection, schedule: Q01DX005 (ip), vehicle: water 95 % of control

N#Cc1nccc2ccc(OCc3ccc(Br)cc3)cc12
inactive: [4] 88 % of control | [5] 86 % of control | [11] 89 % of control

C[N+]1(C)OCC2CCCC(c3ccccc3)C21 (stereo unspecified)
inactive: dose: 12.5 mg/kg/injection, schedule: Q01DX001 (ip), vehicle: saline 104 % of control | dose: 25.0 mg/kg/injection, schedule: Q01DX001 (ip), vehicle: saline 102 % of control | dose: 50.0 mg/kg/injection, schedule: Q01DX001 (ip), vehicle: saline 98 % of control

Cc1ccc(OCCOc2ccc(C)c(CC(Cl)(Cl)Cl)c2)cc1CC(Cl)(Cl)Cl
inactive: dose: 100.0 mg/kg/injection, schedule: Q01DX001 (ip), vehicle: DMSO 88 % of control | dose: 200.0 mg/kg/injection, schedule: Q01DX001 (ip), vehicle: DMSO 89 % of control | dose: 400.0 mg/kg/injection, schedule: Q01DX001 (ip), vehicle: DMSO 88 % of control

CC(C)CCNc1ccc(NCCC(C)C)cc1
inactive: [2] 100 % of control | dose: 12.5 mg/kg/injection, schedule: Q04DX003 (ip), vehicle: Klucel (hydroxypropylcellulose) (HPC) 104 % of control | dose: 25.0 mg/kg/injection, schedule: Q01DX009 (ip), vehicle: saline with Tween-80 100 % of control | dose: 25.0 mg/kg/injection, schedule: Q04DX003 (ip), vehicle: Klucel (hydroxypropylcellulose) (HPC) 96 % of control | [3] 96 % of control | dose: 50.0 mg/kg/injection, schedule: Q04DX003 (ip), vehicle: Klucel (hydroxypropylcellulose) (HPC) 96 % of control | dose: 75.0 mg/kg/injection, schedule: Q01DX009 (ip), vehicle: alcohol 86 % of control

CCC(C(=O)O)N1C(=O)C2C3C=CC(C3)C2C1=O (stereo unspecified)
inactive: [4] 94 % of control and 96 % of control | [5] 96 % of control and 105 % of control | [11] 105 % of control

CCCCCCCCCCOS(C)=O (stereo unspecified)
inactive: [3] 100 % of control | [6] 92 % of control | [9] 88 % of control
